Values joined by “and” are separate entries in the source; they are usually repeats but may differ in a detail not shown here. Equal values may be shown once.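 Method: 48-hour compound exposure of cells in 96-well plates, five concentrations, linear interpolation of endpoints. The concentration for 50% growth inhibition is given as GI50. TGI: total growth inhibition.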
Experiments:
Assay in all cases: NCI-60 cell line screen, 48 h
BT-549 breast = tested on: BT-549 breast
CCRF-CEM leukemia = tested on: CCRF-CEM leukemia
HOP-62 NSCLC = tested on: HOP-62 NSCLC
HS 578T breast = tested on: HS 578T breast
MCF7 breast = tested on: MCF7 breast
OVCAR-3 ovarian = tested on: OVCAR-3 ovarian
OVCAR-8 ovarian = tested on: OVCAR-8 ovarian
PC-3 prostate = tested on: PC-3 prostate
RXF 393 renal = tested on: RXF 393 renal
HCC-2998 colon = tested on: HCC-2998 colon

SMILES	GI50 (BT-549 breast) [µM]	TGI (BT-549 breast) [µM]	GI50 (CCRF-CEM leukemia) [µM]	TGI (CCRF-CEM leukemia) [µM]	GI50 (HOP-62 NSCLC) [µM]	TGI (HOP-62 NSCLC)	GI50 (HS 578T breast) [µM]	TGI (HS 578T breast)	GI50 (MCF7 breast) [µM]	TGI (MCF7 breast)	GI50 (OVCAR-3 ovarian) [µM]	TGI (OVCAR-3 ovarian)	GI50 (OVCAR-8 ovarian) [µM]	TGI (OVCAR-8 ovarian) [µM]	GI50 (PC-3 prostate) [µM]	TGI (PC-3 prostate)	GI50 (RXF 393 renal) [µM]	TGI (RXF 393 renal)	TGI (HCC-2998 colon)	GI50 (HCC-2998 colon) [µM]
Cc1ccc(C2C3Cc4ccccc4C3=NN2c2ccc(S(=O)(=O)NC(=O)Nc3ccccc3)cc2)cc1 (stereo not given)	14.7	34.5	17.8	46.6	19.3	63 µM	17.4	49.9 µM	17.1	> 100 µM	14.7	36.5 µM	21.6	> 100	13.5	26.3 µM	16	38.5 µM	–	–
Nc1ncnc2c1ncn2CCCCC(=O)O	–	> 100	–	–	–	> 100 µM	–	> 100 µM	–	> 100 µM	–	> 100 µM	–	> 100	–	> 100 µM	–	> 100 µM	> 100 µM	–
Cc1ccc(NC(=O)CCC(=O)C2Cc3ccccc3C2=O)cc1C (stereo not given)	–	–	–	> 100	–	> 100 µM	–	–	–	–	–	> 100 µM	–	> 100	–	–	–	> 100 µM	> 100 µM	–
COc1cc(/C=C/c2ccnc3ccccc23)cc(OC)c1OC	–	–	3.64	–	5.87	37.7 µM and > 100 µM	1.74	20.9 µM and 7.18 µM	2.35	25.2 µM and > 100 µM	1.67	14.6 µM and 4.71 µM	4.17	> 100	3.81	94.1 µM and > 100 µM	1.97	15.3 µM and 8.02 µM	> 100 µM and 38.4 µM	3.53
CCc1cccc(NC(=O)c2cc(/C=C/c3ccccc3)[nH]c(=S)n2)c1	–	–	–	> 100	–	> 100 µM	–	–	–	–	–	> 100 µM	–	> 100	–	–	–	> 100 µM	> 100 µM	–
CC[P+]1(c2ccccc2)CCCCC1	–	–	–	> 100	–	> 100 µM	–	–	–	–	–	> 100 µM	–	> 100	–	–	–	> 100 µM	> 100 µM	–
C=C1C(C(=O)O)C1C(=O)O (stereo not given)	–	–	–	> 100	–	> 100 µM	–	–	–	–	–	–	–	> 100	–	–	–	> 100 µM	> 100 µM	–
CC[Si](CC)(CC)OC1[C@@H](O[Si](CC)(CC)CC)[C@@H](CNC(=O)NC)O[C@H]1n1cnc2c(NC(=O)Nc3ccccc3)ncnc21 (stereo not given in full)	3	12.2	3.02	9.18	16	> 100 µM	2.66	39.5 µM	3.24	14.3 µM	2.63	7.7 µM	3.89	> 100	–	–	2.36	4.67 µM	16.2 µM	3.22
CC(C)(C)OC1=C(OC(C)(C)C)C(O)(c2ccc(Cl)cc2)C1=O (stereo not given)	–	–	–	> 100	–	–	–	–	–	–	–	> 100 µM	–	> 100	–	–	–	> 100 µM	> 100 µM	–
CCOP(=O)(OCC)C(NC(c1ccccc1)c1ccccc1)c1ccc(C(C)C)cc1 (stereo not given)	6.8	28.9	3.39	25.5	6.08	18.8 µM	–	–	3.06	11.4 µM	1.87	6.15 µM	5.04	19.5	2.9	13.3 µM	–	–	18.2 µM	5.49
CCc1ccccc1NC(=O)C(=O)C(C#N)c1c(Cl)cccc1Cl (stereo not given)	–	–	–	> 100	–	–	–	–	–	–	–	> 100 µM	–	–	–	–	–	–	–	–
COc1cc(NCCC2CCCCN2)c2ncccc2c1OC (stereo not given)	19.9	34.8	–	–	17.3	32.4 µM	4.34	31.1 µM	3.19	15.2 µM	2.13	5.01 µM	6.49	59.2	18.1	72 µM	22.8	38.5 µM	31.8 µM	16.9
Cc1ccc2c(c1)C(O)(c1ccccc1)CCS2 (stereo not given)	–	93.6	–	–	–	> 100 µM	–	> 100 µM	–	> 100 µM	–	46.9 µM	–	> 100	–	> 100 µM	–	> 100 µM	–	–
COc1ccc(/C=C/c2nc(=S)[nH][nH]2)cc1OC	–	–	–	> 100	–	–	–	–	–	–	–	> 100 µM	–	> 100	–	–	–	> 100 µM	> 100 µM	–
Nc1cc(N)c2nc(-c3ccccc3)c(NCc3ccc(Cl)c(Cl)c3)nc2c1	–	–	0.133	1.83	15.7	31.9 µM	5.9	46.7 µM	12.4	54.3 µM	2.64	6.98 µM	3.41	13.5	1.75	5.16 µM	3.06	16.8 µM	–	–
O=C1C2C3C=C4c5ccccc5N(c5ccccc5)C4([C@@H]2C(=O)N1c1ccc(F)cc1)[C@H]1C(=O)N(c2ccc(F)cc2)C(=O)[C@@H]31 (stereo not given in full)	–	–	–	> 100	–	–	–	–	–	–	–	> 100 µM	–	> 100	–	–	–	> 100 µM	> 100 µM	–
CC(=O)O[C@H]1CC[C@]2(C)C3C(=O)C[C@]4(C)[C@@H](C(C)CCC(=O)O)CC[C@@]4(C)[C@@H]3CC[C@H]2C1(C)C (stereo not given in full)	17	39.4	–	–	27.2	> 50 µM	11.9	39.5 µM	20.7	> 50 µM	25.9	> 50 µM	15.7	> 50	18.3	> 50 µM	15.5	> 50 µM	–	–
O=C(O)c1cc(Cl)cc(Cc2cc(Cl)cc(C(=O)O)c2O)c1O	–	> 100	–	> 100	–	> 100 µM	–	> 100 µM	–	> 100 µM	–	> 100 µM	–	> 100	–	> 100 µM	–	> 100 µM	–	–
Oc1cc(O)c2c(c1)OC(c1ccc(O)c(O)c1)C(O)C2c1c(O)cc(O)c2c1OC(c1ccc(O)c(O)c1)C(O)C2 (stereo not given)	–	> 100	–	–	–	> 100 µM	–	> 100 µM	–	> 100 µM	–	> 100 µM	–	> 100	–	> 100 µM	–	> 100 µM	–	–
CCOC(=O)c1ccc(NC(=O)c2cccc(NC3=C(Cl)C(=O)N(Cc4ccccc4)C3=O)c2)cc1	> 100	> 100	15.7	65.9	> 100	> 100 µM	> 100	> 100 µM	51.3	> 100 µM	> 100	> 100 µM	> 100	> 100	> 100	> 100 µM	> 100	> 100 µM	–	–

SMILES	GI50 (BT-549 breast) [µM]	TGI (BT-549 breast) [µM]	GI50 (CCRF-CEM leukemia) [µM]	TGI (CCRF-CEM leukemia) [µM]	GI50 (HOP-62 NSCLC) [µM]	TGI (HOP-62 NSCLC)	GI50 (HS 578T breast) [µM]	TGI (HS 578T breast)	GI50 (MCF7 breast) [µM]	TGI (MCF7 breast)	GI50 (OVCAR-3 ovarian) [µM]	TGI (OVCAR-3 ovarian)	GI50 (OVCAR-8 ovarian) [µM]	TGI (OVCAR-8 ovarian) [µM]	GI50 (PC-3 prostate) [µM]	TGI (PC-3 prostate)	GI50 (RXF 393 renal) [µM]	TGI (RXF 393 renal)	TGI (HCC-2998 colon)	GI50 (HCC-2998 colon) [µM]
CNC(=O)NCCN1N=C(C)/C(=C\c2ccccc2)CC1=O	–	–	–	> 100	–	> 100 µM	–	–	–	–	–	> 100 µM	–	> 100	–	–	–	> 100 µM	> 100 µM	–
CCN(CC)CCCNc1cc(OC)c(OC)c2cccnc12	18.6	36.5	–	–	2.04	21.4 µM	7.3	42.8 µM	1.71	5.47 µM	2.19	5.13 µM	13.3	35.5	16.1	47.2 µM	19.1	34.3 µM	25.7 µM	11.9
Cc1cn2c(/C=C3\C(=O)N(C)c4ccc(Cl)cc43)c(C)nc2s1	6.4	> 100	2.74	10.1	5.6	72 µM	8.28	> 100 µM	7.01	55.5 µM	2.55	6.93 µM	5.5	> 100	0.99	4.38 µM	–	–	6.18 µM	2.61
N#CC(C#N)=C1CCC2C(=C(C#N)C#N)CCC12 (stereo not given)	–	–	–	> 100	–	> 100 µM	–	–	–	–	–	> 100 µM	–	> 100	–	–	–	> 100 µM	> 100 µM	–
N#CC1=C(c2ccccc2)OC2(N)OC(c3ccccc3)=C(C#N)C12C#N (stereo not given)	–	–	–	> 100	–	> 100 µM	–	–	–	–	–	> 100 µM	–	> 100	–	–	–	> 100 µM	> 100 µM	–
CC(=O)[CH-]C(=O)c1ccccc1.CC(=O)[CH-]C(=O)c1ccccc1.CC(=O)[CH-]C(=O)c1ccccc1.[Br-].[Zr+4]	–	–	22.3	> 100	64	> 100 µM	–	–	–	–	48.1	> 100 µM	> 100	> 100	–	–	> 100	> 100 µM	–	–
O=C(O)CCSC(=O)Nc1ccccc1	–	–	–	> 100	–	> 100 µM	–	–	–	–	–	> 100 µM	–	> 100	–	–	–	> 100 µM	> 100 µM	–
O=C1CCc2ccc(O)c(c2)Oc2ccc(cc2)[C@@H]2O[C@@H]2CO1	–	–	–	> 100	–	> 100 µM	–	–	–	–	–	> 100 µM	–	> 100	–	–	–	–	> 100 µM	–
CCOC(=O)c1cc2c(n1Cc1ccccc1OC)-c1oncc1CCC2	7.73	> 100	2.87	> 100	1.89	9.9 µM	3.38	> 100 µM	0.716	> 100 µM	0.874	6.49 µM	3.85	> 100	2.48	> 100 µM	–	–	> 100 µM	> 100
O=C(Nc1ccc(Cl)cc1)N1CCN(c2ccc3nncn3n2)CC1	57.4	> 100	–	–	> 100	> 100 µM	> 100	> 100 µM	35.3	> 100 µM	62.4	> 100 µM	69.7	> 100	34.3	> 100 µM	> 100	> 100 µM	> 100 µM	81.8
CN(C)CCNC(=O)c1cccc2c1nc(-c1ccncc1)c1ccccc12	–	–	–	> 100	–	19.5 µM	–	–	–	–	–	30.4 µM	–	41.9	–	–	–	7.55 µM	16.7 µM	–
COc1ccc(NC(=O)c2cccc(C3CCc4c(cc(OC)c(OC)c4OC)O3)c2)cc1 (stereo not given)	2.83	> 100	1.6	> 100	2.86	> 100 µM	2.69	> 100 µM	3.11	> 100 µM	3.54	> 100 µM	3.1	> 100	1.57	> 100 µM	–	–	> 100 µM	6.01
CC(=N\O)/C(C)=N/O.CC(=N\O)/C(C)=N/O.[Fe].[NH2-].c1c[nH]cn1	> 100	> 100	–	–	> 100	> 100 µM	> 100	> 100 µM	> 100	> 100 µM	> 100	> 100 µM	> 100	> 100	> 100	> 100 µM	> 100	> 100 µM	–	–
C/C=C1/C(=Cc2[nH]c(C=c3[nH]/c(=C/C4=NC(=O)C(CC)=C4C)c(C)c3CCC(=O)O)c(CCC(=O)O)c2C)NC(=O)C1C (stereo not given)	–	–	–	> 50	–	15.9 µM	–	–	–	–	–	> 50 µM	–	5	–	–	–	> 50 µM	> 50 µM	–
CCOC(=O)CCn1cnc(N)n1	–	–	–	> 100	–	> 100 µM	–	–	–	–	–	> 100 µM	–	> 100	–	–	–	> 100 µM	> 100 µM	–
O=c1[nH]c2ccccc2n1C1CCN(CCOc2ccccc2)CC1	34.2	> 100	–	–	50.3	> 100 µM	20.8	77.6 µM	26.3	> 100 µM	14	> 100 µM	13.3	> 100	10.7	> 100 µM	45	> 100 µM	> 100 µM	26.9
COc1ccc(C(Nc2ccccn2)c2cc(C(C)(C)C)cc(C(C)(C)C)c2O)cc1 (stereo not given)	–	56.8	–	–	–	78.2 µM	–	> 100 µM	–	> 100 µM	–	43.6 µM	–	> 100	–	> 100 µM	–	38.6 µM	38.7 µM	–
O=C(NCc1ccccc1)C1C(=O)C(=O)N(Cc2ccccc2)C1=O (stereo not given)	–	–	–	> 100	–	> 100 µM	–	–	–	–	–	> 100 µM	–	> 100	–	–	–	> 100 µM	> 100 µM	–
O=C(COc1cccc(/C=C2\Oc3ccc4ccccc4c3C2=O)c1)c1ccc([N+](=O)[O-])cc1	17.3	37.6	3.96	17.4	38.5	> 100 µM	18.2	56.1 µM	11.1	28.6 µM	14.9	28 µM	14.2	37.2	–	–	10.6	25.2 µM	> 100 µM	15.7

From PubChem BioAssay (NCI)
